Columns and labels:
Conditions in all cases: compound at 10 μM
[1] = molecular target: T1, Mouse urotensin (mUR2) (Mus musculus, UniProt Q8VIH9); test: Radioligand binding, mouse urotensin mUR2 membranes, FlashPlate, [125I]-Urotensin II
T1 construct: purchased Perkin Elmer Biosignal
T1 sequence (Q8VIH9 1-385): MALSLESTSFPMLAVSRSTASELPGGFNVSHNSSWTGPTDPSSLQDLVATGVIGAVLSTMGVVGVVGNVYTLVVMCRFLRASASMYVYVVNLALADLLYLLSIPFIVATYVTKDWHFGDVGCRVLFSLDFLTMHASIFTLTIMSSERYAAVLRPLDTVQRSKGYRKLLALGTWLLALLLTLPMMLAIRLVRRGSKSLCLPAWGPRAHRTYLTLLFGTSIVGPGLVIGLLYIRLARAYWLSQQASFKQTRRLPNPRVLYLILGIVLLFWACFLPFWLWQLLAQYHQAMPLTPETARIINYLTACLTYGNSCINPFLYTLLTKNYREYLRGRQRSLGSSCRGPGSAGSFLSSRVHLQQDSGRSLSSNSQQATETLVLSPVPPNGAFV
Procedure, shortened: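 Cloned mouse urotensin (mUR2) receptor membranes from Perkin Elmer Biosignal were immobilized in FlashPlate microplates using a proprietary coating. Each well got 19.5 μl buffer, then 0.5 μl of DMSO, reference ligand, or compound. Adding 5 μl of [125I]-Urotensin II, diluted to 5× final concentration in binding buffer, started binding. Plates were sealed with TopSeal-A and incubated 1 hour at room temperature in the dark. Wells were counted for 30 seconds each on a TopCount after a 60-second delay, and percentage inhibition was calculated.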

[2] = molecular target: T2, Human melanin-concentrating hormone (MCH1) (Homo sapiens, UniProt Q99705); test: Radioligand binding, human melanin-concentrating hormone MCH1 membranes, FlashPlate, [125I]-S36057
T2 construct: purchased Perkin Elmer Biosignal
Procedure, shortened: (§1)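 Cloned human receptor membranes were coated onto FlashPlate wells and incubated with radioligand and compound (added from a 0.5 mM DMSO daughter plate) for 1 hour at room temperature in the dark. Scintillation counting gave percent inhibition, with DMSO defining total and reference ligand defining non-specific binding.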

[3] = molecular target: T3, Human neuropeptide Y (NPY-Y1) (Homo sapiens, UniProt P25929); test: Radioligand binding, human neuropeptide Y NPY-Y1 membranes, FlashPlate, [125I]-PYY
T3 construct: purchased Perkin Elmer Biosignal
T3 sequence (P25929 1-384): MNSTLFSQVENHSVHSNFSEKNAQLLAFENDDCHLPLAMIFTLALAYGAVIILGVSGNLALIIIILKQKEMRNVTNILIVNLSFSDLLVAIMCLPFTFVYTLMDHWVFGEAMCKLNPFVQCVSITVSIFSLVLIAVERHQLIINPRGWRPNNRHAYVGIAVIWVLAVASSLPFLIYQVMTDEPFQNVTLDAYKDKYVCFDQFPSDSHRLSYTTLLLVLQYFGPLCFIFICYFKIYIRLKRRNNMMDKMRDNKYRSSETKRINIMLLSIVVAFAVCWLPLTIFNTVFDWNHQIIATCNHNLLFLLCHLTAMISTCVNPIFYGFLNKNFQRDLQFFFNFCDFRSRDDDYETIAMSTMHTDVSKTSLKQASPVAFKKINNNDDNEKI
Procedure, shortened: as §1

[4] = molecular target: T4, Human melanocortin (MC5) (Homo sapiens, UniProt P33032); test: Radioligand binding, human melanocortin MC5 membranes, FlashPlate, [125I]-NDP-αMSH
T4 construct: purchased Perkin Elmer Biosignal
Procedure, shortened: as §1

[5] = molecular target: T5, Human Melanocortin (MC4) (Homo sapiens, UniProt P32245); test: Radioligand binding, human melanocortin MC4 membranes, FlashPlate, [125I]-NDP-αMSH
T5 construct: purchased Perkin Elmer Biosignal
Procedure, shortened: as §1

[6] = molecular target: T6, Human opioid (ORL1) (Homo sapiens, UniProt P41146); test: Radioligand binding, human opioid ORL1 membranes, FlashPlate, [125I]-Nociceptin
T6 construct: purchased Perkin Elmer Biosignal
Procedure, shortened: as §1

[7] = molecular target: T7, Human δ-opioid (DOP) (Homo sapiens, UniProt P41143); test: Radioligand binding, human δ-opioid (DOP) membranes, FlashPlate, [3H]-Bremazocine
T7 construct: purchased Perkin Elmer Biosignal
Procedure, shortened: as §1

[8] = molecular target: T8, Human neurokinin (NK1) (Homo sapiens, UniProt P25103); test: Radioligand binding, human neurokinin NK1 membranes, filtration, [125I]-Substance P
T8 construct: purchased Perkin Elmer Biosignal
Procedure, shortened: (§2)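 Percent inhibition of radioligand binding measured on recombinant human membranes: NK1 with [125I]-Substance P, KOP with [3H]-Diprenorphine. Incubation 1 h at room temperature, then harvest onto 0.3% PEI-soaked filters, cold Tris-HCl pH 7.4 washes and scintillation counting; non-specific binding from reference ligand wells.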

[9] = molecular target: T9, Human Melanocortin (MC3) (Homo sapiens, UniProt P41968); test: Radioligand binding, human melanocortin MC3 membranes, FlashPlate, [125I]-NDP-αMSH
T9 construct: purchased Perkin Elmer Biosignal
Procedure, shortened: as §1

[10] = molecular target: T10, Human μ-opioid (MOP) (Homo sapiens, UniProt P35372); test: Radioligand binding, human μ-opioid (MOP) membranes, FlashPlate, [3H]-Naloxone
T10 construct: purchased Perkin Elmer Biosignal
Procedure, shortened: as §1

[11] = molecular target: T11, Human κ-Opioid (KOP) (Homo sapiens, UniProt P41145); test: Radioligand binding, human κ-opioid (KOP) membranes, filtration, [3H]-Diprenorphine
T11 construct: purchased Perkin Elmer Biosignal
Procedure, shortened: as §2

T9 sequence (P41968 whole entry): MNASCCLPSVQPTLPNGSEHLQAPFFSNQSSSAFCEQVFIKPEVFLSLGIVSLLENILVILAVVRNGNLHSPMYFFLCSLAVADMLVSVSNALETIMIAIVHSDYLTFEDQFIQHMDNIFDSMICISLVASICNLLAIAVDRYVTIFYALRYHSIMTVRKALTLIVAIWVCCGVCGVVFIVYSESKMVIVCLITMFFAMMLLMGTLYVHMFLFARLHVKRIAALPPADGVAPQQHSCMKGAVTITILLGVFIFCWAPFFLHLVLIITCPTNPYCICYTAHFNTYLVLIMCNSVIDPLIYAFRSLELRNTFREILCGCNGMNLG
T10 sequence (P35372 whole entry): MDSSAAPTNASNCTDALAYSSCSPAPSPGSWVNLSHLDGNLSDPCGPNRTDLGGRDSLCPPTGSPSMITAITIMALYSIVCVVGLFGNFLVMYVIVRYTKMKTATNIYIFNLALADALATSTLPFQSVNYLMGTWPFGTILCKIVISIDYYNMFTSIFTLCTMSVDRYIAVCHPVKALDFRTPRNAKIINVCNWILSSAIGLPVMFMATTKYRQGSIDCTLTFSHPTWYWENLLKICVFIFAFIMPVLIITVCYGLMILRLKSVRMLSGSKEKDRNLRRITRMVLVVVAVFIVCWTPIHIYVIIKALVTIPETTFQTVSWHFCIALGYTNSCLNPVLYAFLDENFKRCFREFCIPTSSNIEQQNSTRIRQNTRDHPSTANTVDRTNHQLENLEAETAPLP
T7 sequence (P41143 whole entry): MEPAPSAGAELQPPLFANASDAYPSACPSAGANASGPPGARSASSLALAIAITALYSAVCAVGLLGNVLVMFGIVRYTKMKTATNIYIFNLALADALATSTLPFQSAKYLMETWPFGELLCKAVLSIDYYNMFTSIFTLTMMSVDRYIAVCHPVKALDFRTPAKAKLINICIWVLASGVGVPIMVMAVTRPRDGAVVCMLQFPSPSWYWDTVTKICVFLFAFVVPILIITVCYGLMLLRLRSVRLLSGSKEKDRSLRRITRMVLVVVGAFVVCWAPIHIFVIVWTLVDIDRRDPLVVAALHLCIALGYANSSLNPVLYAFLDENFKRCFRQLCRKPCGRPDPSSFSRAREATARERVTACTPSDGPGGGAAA
T5 sequence (P32245 whole entry): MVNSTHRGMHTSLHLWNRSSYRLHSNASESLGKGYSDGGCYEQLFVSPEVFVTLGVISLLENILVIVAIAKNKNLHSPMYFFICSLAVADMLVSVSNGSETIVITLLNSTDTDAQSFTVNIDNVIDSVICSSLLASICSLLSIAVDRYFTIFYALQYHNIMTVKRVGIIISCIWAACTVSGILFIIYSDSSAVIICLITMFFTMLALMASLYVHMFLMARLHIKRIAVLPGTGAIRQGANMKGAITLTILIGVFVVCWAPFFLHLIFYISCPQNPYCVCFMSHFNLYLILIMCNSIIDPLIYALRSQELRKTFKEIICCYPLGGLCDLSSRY
T4 sequence (P33032 whole entry): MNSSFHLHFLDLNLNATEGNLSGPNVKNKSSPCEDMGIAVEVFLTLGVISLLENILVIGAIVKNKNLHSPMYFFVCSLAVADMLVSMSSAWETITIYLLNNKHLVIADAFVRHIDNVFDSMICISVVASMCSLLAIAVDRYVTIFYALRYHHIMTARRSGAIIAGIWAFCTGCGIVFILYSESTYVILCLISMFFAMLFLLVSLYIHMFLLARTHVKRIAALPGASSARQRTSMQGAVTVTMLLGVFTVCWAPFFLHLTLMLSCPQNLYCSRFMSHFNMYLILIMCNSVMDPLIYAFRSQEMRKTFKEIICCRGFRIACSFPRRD
T8 sequence (P25103 whole entry): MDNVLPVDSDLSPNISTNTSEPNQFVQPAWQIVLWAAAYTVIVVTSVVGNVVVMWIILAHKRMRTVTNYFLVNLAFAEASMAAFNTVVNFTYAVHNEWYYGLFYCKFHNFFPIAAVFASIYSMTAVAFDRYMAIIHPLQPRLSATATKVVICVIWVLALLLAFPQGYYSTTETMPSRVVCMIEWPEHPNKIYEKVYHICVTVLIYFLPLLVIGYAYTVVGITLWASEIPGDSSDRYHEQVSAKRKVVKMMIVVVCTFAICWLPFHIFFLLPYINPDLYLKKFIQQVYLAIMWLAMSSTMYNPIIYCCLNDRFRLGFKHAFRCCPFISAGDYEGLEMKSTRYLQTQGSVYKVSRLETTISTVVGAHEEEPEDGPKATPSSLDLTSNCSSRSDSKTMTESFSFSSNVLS
T6 sequence (P41146 whole entry): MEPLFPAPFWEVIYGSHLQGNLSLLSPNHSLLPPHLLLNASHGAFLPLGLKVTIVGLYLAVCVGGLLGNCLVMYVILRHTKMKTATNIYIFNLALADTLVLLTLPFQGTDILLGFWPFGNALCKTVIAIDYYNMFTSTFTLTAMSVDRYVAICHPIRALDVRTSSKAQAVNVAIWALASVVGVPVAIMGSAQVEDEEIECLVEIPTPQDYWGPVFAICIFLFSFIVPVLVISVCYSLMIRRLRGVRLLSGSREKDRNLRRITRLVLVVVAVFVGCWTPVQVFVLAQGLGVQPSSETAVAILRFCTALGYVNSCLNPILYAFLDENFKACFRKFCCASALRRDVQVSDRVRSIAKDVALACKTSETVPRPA
T2 sequence (Q99705 whole entry): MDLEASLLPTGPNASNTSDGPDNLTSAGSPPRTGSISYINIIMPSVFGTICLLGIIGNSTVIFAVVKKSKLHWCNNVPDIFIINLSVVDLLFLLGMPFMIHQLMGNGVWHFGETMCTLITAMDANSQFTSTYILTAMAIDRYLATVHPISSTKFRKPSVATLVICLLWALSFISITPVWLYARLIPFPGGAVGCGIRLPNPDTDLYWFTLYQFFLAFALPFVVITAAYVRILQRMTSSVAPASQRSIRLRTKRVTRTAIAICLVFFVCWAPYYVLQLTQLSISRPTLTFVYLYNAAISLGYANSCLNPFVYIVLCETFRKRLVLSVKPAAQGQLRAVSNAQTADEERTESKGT
T11 sequence (P41145 whole entry): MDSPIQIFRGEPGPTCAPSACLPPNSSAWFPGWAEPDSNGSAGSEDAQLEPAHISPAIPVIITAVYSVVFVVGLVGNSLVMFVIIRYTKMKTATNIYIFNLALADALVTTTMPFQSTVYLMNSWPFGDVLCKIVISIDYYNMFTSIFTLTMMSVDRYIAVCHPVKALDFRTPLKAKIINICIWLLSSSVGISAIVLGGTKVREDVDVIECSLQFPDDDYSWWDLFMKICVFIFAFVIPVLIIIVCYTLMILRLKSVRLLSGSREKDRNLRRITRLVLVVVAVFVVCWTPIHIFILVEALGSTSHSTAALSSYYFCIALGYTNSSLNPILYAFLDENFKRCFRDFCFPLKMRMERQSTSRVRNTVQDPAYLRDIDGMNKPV

With CO[C@H]1[C@H](O)[C@@H](COCc2ccc3ccccc3c2)OC(OCc2ccccc2)[C@@H]1NC(=O)CCCN (stereo partly drawn) [compound 88] the “A11 radioligand binding inhibition” value ([1]; mouse urotensin mUR2 membranes) was “− (“−” indicates less than 50% inhibition at 10 μM)”, the “A6 radioligand binding inhibition” value ([2]; human MCH1 membranes) was “− (“−” indicates less than 50% inhibition at 10 μM)” and the “A9 radioligand binding inhibition” value ([3]; human NPY-Y1 membranes) was “− (“−” indicates less than 50% inhibition at 10 μM)”. For the same compound, the “A5 radioligand binding inhibition” value ([4]; human melanocortin MC5 membranes) was “− (“−” indicates less than 50% inhibition at 10 μM)”, the “A4 radioligand binding inhibition” value ([5]; human melanocortin MC4 membranes) was “− (“−” indicates less than 50% inhibition at 10 μM)” and the “A10 radioligand binding inhibition” value ([6]; human ORL1 membranes) was “− (“−” indicates less than 50% inhibition at 10 μM)”. For the same compound, the “A1 radioligand binding inhibition” value ([7]; human δ-opioid (DOP) membranes) was “− (“−” indicates less than 50% inhibition at 10 μM)”, the “A8 radioligand binding inhibition” value ([8]; human neurokinin NK1 membranes) was “+ (“+” indicates greater than 50% inhibition at 10 μM)” and the “A3 radioligand binding inhibition” value ([9]; human melanocortin MC3 membranes) was “− (“−” indicates less than 50% inhibition at 10 μM)”. The “A7 radioligand binding inhibition” value ([10]; human μ-opioid (MOP) membranes) was “− (“−” indicates less than 50% inhibition at 10 μM)” and the “A2 radioligand binding inhibition” value ([11]; human κ-opioid (KOP) membranes) was “− (“−” indicates less than 50% inhibition at 10 μM)”.
COC[C@H]1OC(OCc2ccc3ccccc3c2)[C@H](NC(=O)CCCNC(=N)N)[C@@H](OCc2cccc(O)c2)[C@@H]1O (stereo partly drawn) [compound 135] was tested, and the “A11 radioligand binding, percentage inhibition” value ([1]; [125I]-Urotensin II) was “− (“−” indicates less than 50% inhibition at 10 μM)”, the “A6 radioligand binding, percentage inhibition” value ([2]; [125I]-S36057) was “− (“−” indicates less than 50% inhibition at 10 μM)” and the “A9 radioligand binding, percentage inhibition” value ([3]; [125I]-PYY) was “− (“−” indicates less than 50% inhibition at 10 μM)”. The “A5 radioligand binding, percentage inhibition” value ([4]; [125I]-NDP-αMSH) was “− (“−” indicates less than 50% inhibition at 10 μM)”, the “A4 radioligand binding, percentage inhibition” value ([5]; [125I]-NDP-αMSH) was “− (“−” indicates less than 50% inhibition at 10 μM)” and the “A10 radioligand binding, percentage inhibition” value ([6]; [125I]-Nociceptin) was “− (“−” indicates less than 50% inhibition at 10 μM)”. The “A1 radioligand binding, percentage inhibition” value ([7]; [3H]-Bremazocine) was “− (“−” indicates less than 50% inhibition at 10 μM)”, the “A8 radioligand binding, percentage inhibition” value ([8]; [125I]-Substance P) was “− (“−” indicates less than 50% inhibition at 10 μM)” and the “A3 radioligand binding, percentage inhibition” value ([9]; [125I]-NDP-αMSH) was “− (“−” indicates less than 50% inhibition at 10 μM)”. For the same compound, the “A7 radioligand binding, percentage inhibition” value ([10]; [3H]-Naloxone) was “+ (“+” indicates greater than 50% inhibition at 10 μM)” and the “A2 radioligand binding, percentage inhibition” value ([11]; [3H]-Diprenorphine) was “− (“−” indicates less than 50% inhibition at 10 μM)”.
With COC[C@H]1OC(OCCc2ccccc2)[C@H](NC(=O)CCCN)[C@@H](OCc2ccc3ccccc3c2)[C@@H]1O (single isomer, unassigned) [compound 346] the “A11: inhibition of radioligand binding, mouse urotensin (mUR2)” value ([1]; [125I]-Urotensin II, 10 µM) was “+ (“+” indicates greater than 50% inhibition at 10 μM)”, the “A6: inhibition of radioligand binding, human melanin-concentrating hormone (MCH1)” value ([2]; [125I]-S36057, 10 µM) was “+ (“+” indicates greater than 50% inhibition at 10 μM)” and the “A9: inhibition of radioligand binding, human neuropeptide Y (NPY-Y1)” value ([3]; [125I]-PYY) was “− (“−” indicates less than 50% inhibition at 10 μM)”. For the same compound, the “A5: inhibition of radioligand binding, human melanocortin (MC5)” value ([4]; [125I]-NDP-αMSH, 10 µM) was “+ (“+” indicates greater than 50% inhibition at 10 μM)”, the “A4: inhibition of radioligand binding, human melanocortin (MC4)” value ([5]; [125I]-NDP-αMSH, 10 µM) was “+ (“+” indicates greater than 50% inhibition at 10 μM)” and the “A10: inhibition of radioligand binding, human opioid (ORL1)” value ([6]; [125I]-Nociceptin, 10 µM) was “+ (“+” indicates greater than 50% inhibition at 10 μM)”. The “A1: inhibition of radioligand binding, human δ-opioid (DOP)” value ([7]; [3H]-Bremazocine) was “− (“−” indicates less than 50% inhibition at 10 μM)”, the “A8: inhibition of radioligand binding, human neurokinin (NK1)” value ([8]; [125I]-Substance P) was “+ (“+” indicates greater than 50% inhibition at 10 μM)” and the “A3: inhibition of radioligand binding, human melanocortin (MC3)” value ([9]; [125I]-NDP-αMSH, 10 µM) was “+ (“+” indicates greater than 50% inhibition at 10 μM)”. The “A7: inhibition of radioligand binding, human μ-opioid (MOP)” value ([10]; [3H]-Naloxone, 10 µM) was “+ (“+” indicates greater than 50% inhibition at 10 μM)” and the “A2: inhibition of radioligand binding, human κ-opioid (KOP)” value ([11]; [3H]-Diprenorphine, 10 µM) was “+ (“+” indicates greater than 50% inhibition at 10 μM)”.
